In US7553821B2, “Methods for selectively modulating survivin apoptosis pathways” (Yale University, priority 2000, dated 2009):

Tested on: YUSAC-2 melanoma cells
Experiment: Apoptosis in Tet-regulated YUSAC-2 transfectants (DNA content, TUNEL, caspase-9 Western blot)
Format: cell-based, human
Settings: for G2/M and apoptotic (sub-G1) DNA content after transgene induction: stably transfected YUSAC-2 lines, Tet withdrawn (transgene expressed)
Method: Three YUSAC-2 melanoma cell lines stably transfected with survivin(T34A) in pTet splice were analyzed for DNA content by propidium iodide staining and flow cytometry in the presence (Tet+) or absence (Tet−) of Tet. The percentages of cells with sub-G1 (apoptotic) DNA content after a 3-d culture at 37° C. are indicated.
The experimental conditions are the same as in A, except that a subclone of YUSAC-2 transfectants, F5.C4 was analyzed in the presence (Tet+) or in the absence (Tet−) of Tet for internucleosomal DNA fragmentation by end-labeling with terminal deoxynucleotidyl transferase (TdT) and a peroxidase-conjugated anti-digoxigenin antibody.
Tet+ and Tet− F5.C4 cells characterized as described in FIG. 4, were harvested at the indicated time intervals after thymidine release and immunoblotted with an antibody to caspase-9. TNF+CHX, extract of HeLa cells treated with 10 ng/ml TNFα plus 10 μg/ml cycloheximide. Arrows, position of ˜46 kDa proform caspase-9, and ˜35 kDa and ˜37 kDa active caspase-9 bands.
Cells were then fixed, permeabilized and stained with propidium iodide for DNA content as described (Grossman et al., 1999). The marker indicates the sub-G1 fraction, corresponding to apoptotic cells.
Cells were fixed in 1% paraformaldehyde for 10 minutes at room temperature and then permeabilized with acetic acid and ethanol for 5 minutes at […]. Arrows indicate TUNEL-reactive (Shockett et al., 1995) cells with apoptotic morphology.
Transfection experiments. For transient transfection, HeLa cells in C-6 tissue culture plates (Costar, Cambridge, Mass.) at ˜60-70% confluency, were incubated in 1 ml of serum-free OptiMEM medium (Life Technologies, Gaithersburg, Md.) for 20 min, and transfected with 2.5 μg of the various plasmid cDNAs plus 9 μl Lipofectamine (Life Technologies). After a 5 h incubation at 37° C., the mixture was aspirated and substituted with complete growth medium for 48-72 h. To generate stable YUSAC-2 transfectants, a survivin(T34A) cDNA was inserted into the HindIII-SpeI sites of the pTet-splice vector (Dr. D. Schatz, Yale University School of Medicine), downstream of the regulatory sequences of the Tet-resistance operon (TetO). YUSAC-2 cells were transfected with 0.8 μg pTet-T34A, 0.8 μg of the transactivation/selection plasmid ptTA-Neo and 5 μl Lipofectamine in 1 ml of OptiMem. Forty-eight h after transfection, cells were re-plated at low density in 15×150 mm plates in growth medium containing 1.5 mg/ml Geneticin (G418, Life Technologies), 2 mM sodium hydroxide and 0.5 μg/ml Tet (Sigma, St. Louis, Mo.) (selection medium). […] Gated GFP-expressing cells were analyzed for DNA content by flow cytometry on a FACSort (Becton Dickinson, San Jose, Calif.) using a Cell Quest software. […]

survivin(T34A): dominant-negative, non-phosphorylatable survivin mutant with Thr34→Ala substitution, expressed from transfected cDNA (also HA- or GFP-tagged)
internucleosomal DNA fragmentation by TUNEL (F5.C4 cells, Tet-deprived): stained intensely for internucleosomal DNA fragmentation by TUNEL
caspase-9 processing by Western blotting (cell cycle synchronized Tet− F5.C4 cells after thymidine release): time-dependent cleavage of 46 kDa proform caspase-9 and generation of ˜35 kDa and ˜37 kDa active caspase-9 bands
G2/M and apoptotic (sub-G1) DNA content after transgene induction: nearly complete loss of mitotic (G2/M) cells, and appearance of a prominent population with apoptotic (sub-G1) DNA content
G2/M and apoptotic (sub-G1) DNA content after transgene induction (listed as Thr^34→Ala mutant): progressive time-dependent loss of mitotic (G2/M) cells and coincident accumulation of apoptotic cells
